The values below come from PMC6270837, “Preparation and Biological Properties of Ring-Substituted Naphthalene-1-Carboxanilides” (Molecules, 2014).

Series [1] in a line: Lipophilicity determination by RP-HPLC (capacity factor, log k). The series is classed as physicochemical. The following applies: end-capped C18, isocratic MeOH 60%/H2O 40%. On the procedure: Lipophilicity is a property that has a major effect on bioavailability, biotransformation as well as pharmacological activity, because drugs cross biological membranes through passive transport, which strongly depends on their lipophilicity. Lipophilicity of the studied compounds was determined by RP‑HPLC as capacity factor logarithm (log k). The procedure was performed under isocratic conditions with methanol as an organic modifier in the mobile phase using an end-capped non-polar C18 stationary RP column. The results of ring-substituted naphthalene-1-carboxanilides 1–8c are shown in Table 1 and illustrated in Figure 1. […] Lipophilicity was also calculated as log P using ACD/Percepta ver. 2012 (Advanced Chemistry Development, Inc., Toronto, ON, Canada).
A HPLC system Agilent 1200 equipped with DAD detector (Agilent, USA) was used. A chromatographic column Symmetry® C18 5 μm, 4.6 × 250 mm, Part No. WAT054275 (Waters Corp., Milford, MA, USA) was used. The HPLC separation process was monitored and evaluated by EZChrom Elite software ver. 3.3.2 (Agilent, USA). Isocratic elution by a mixture of MeOH p.a. (60%) and H2O-HPLC Mili-Q grade (40%) as a mobile phase was used. The total flow of the column was 1.0 mL/min, injection 20 μL, column temperature 40 °C, and sample temperature 10 °C. The detection wavelength 210 nm was chosen. The KI methanolic solution was used for the dead time (tD) determination. Retention times (tR) were measured in minutes. The capacity factors k were calculated according to formula k = (tR − tD)/tD, where tR is the retention time of the solute, whereas tD denotes the dead time obtained using an unretained analyte. Log k, calculated from the capacity factor k, is used as the lipophilicity index converted to log P scale.

In series [2] the test system is human monocytic leukemia THP-1 cell line. Kind of series: In vitro cytotoxicity assay (LDH). The following applies: for LD50: human, 24 h; for lethal effect / toxicity on THP-1 cells: treatment with 30 μmol/L. As for the experimental part: Human monocytic leukemia THP-1 cells were obtained from the European Collection of Cell Cultures (ECACC, Salisbury, UK; Methods of characterization: DNA Fingerprinting (Multilocus probes) and isoenzyme analysis). These cells were routinely cultured in RPMI 1640 (Lonza, Verviers, Belgium) medium supplemented with 10% fetal bovine serum (FBS, Sigma-Aldrich, St. Louis, MO, USA), 2% L-glutamine, 1% penicillin and streptomycin (Lonza) at 37 °C with 5% CO2. Cells were passaged at approximately one-week intervals. Cells were routinely tested for the absence of mycoplasma (Hoechst 33258 staining method). The tested compounds were dissolved in DMSO (Sigma-Aldrich) and added in five increasing concentrations to the cell suspension in the culture medium. The maximum concentration of DMSO in the assays never exceeded 0.1%. Subsequently, the cells were incubated for 24 h at 37 °C with 5% CO2 to various compound concentrations ranging from […] in RPMI 1640 medium. Cell toxicity was determined using a Cytotoxicity Detection Kit^PLUS Lactate dehydrogenase (LDH) assay kit (Roche Diagnostics, Mannheim, Germany) according to the manufacturer’s instructions, as described previously. For LDH assays, cells were seeded into 96-well plates (5 × 10^4 cells/well in 100 μL culture medium) in triplicate in serum-free RPMI 1640 medium, and measurements at 492 nm wavelength (Synergy 2 Multi-Mode Microplate Reader, BioTek, Winooski, VT, USA) were taken 24 h after the treatment with tested compounds. The median lethal dose values, LD50, were deduced through the production of a dose-response curve. All data were evaluated using GraphPad Prism 5.00 software (GraphPad Software, San Diego, CA, USA).
LDH Test Principle: The LDH activity is determined by a coupled enzymatic reaction, whereby the tetrazolium salt INT is reduced to formazan. An increase in the amount of dead or plasma membrane damaged cells results in an increase of LDH enzyme activity in the culture supernatant. This increase in the amount of enzyme activity in the supernatant directly correlates to the amount of formazan formed during a limited time period.

The next series is described as follows: physchem. The following applies: aqueous buffer, kinetic from dmso stock.
Series [3] relates to Mycobacterium avium subsp. paratuberculosis CIT03. Kind of series: In vitro antimycobacterial evaluation (MIC/IC90, alamarBlue). The series is classed as cell-based. The following applies: for antimycobacterial activity relative to ciprofloxacin / antimycobacterial activity relative to rifampicin: M. avium subsp. paratuberculosis, comparison of MICs; for MIC: Mycobacterium avium. On the procedure:
The MIC/IC90 value is routinely and widely used in bacterial assays and is a standard detection limit according to the Clinical and Laboratory Standards Institute.
A well-characterized clinical isolate of Mycobacterium avium subsp. paratuberculosis (CIT03) was grown in Middlebrook broth (MB), supplemented with Oleic-Albumin-Dextrose-Catalase supplement (OADC, Becton, Dickinson and Comp., Franklin Lakes, NJ, USA) and mycobactin J (2 µg/mL). Identification of this isolate was performed using biochemical and molecular protocols. At log phase growth, a culture sample (10 mL) was centrifuged at 15,000 rpm/20 min using a bench top centrifuge (Model CR 4-12, Jouan Inc., Winchester, VA, USA). Following removal of the supernatant, the pellet was washed in fresh Middlebrook 7H9GC broth and re-suspended in fresh supplemented MB (10 mL). The turbidity was adjusted to match McFarland standard No. 1 (3 × 10^8 cfu) with MB broth. A further 1:20 dilution of the culture was then performed in MB broth. The antimicrobial susceptibility of the mycobacterial species was investigated in a 96-well plate format. In these experiments, sterile deionized water (300 µL) was added to all outer-perimeter wells of the plates to minimize evaporation of the medium in the test wells during incubation. Each evaluated compound (100 µL) was incubated with the mycobacterial species (100 µL). Dilutions of each compound were prepared in duplicate. For all synthesized compounds, final concentrations ranged from 1,000 µg/mL to 8 µg/mL. All compounds were prepared in DMSO and subsequent dilutions were made in supplemented MB. The plates were sealed with parafilm and incubated at 37 °C for 11 days.
Following incubation, a 10% addition of alamarBlue (AbD Serotec, Kidlington, UK) was mixed into each well and readings at 570 nm and 600 nm were taken, initially for background subtraction and subsequently after 24 h re-incubation. […] For non-interfering compounds, a blue colour in the well was interpreted as an absence of growth and a pink colour was scored as growth. Furthermore percent reduction of alamarBlue was calculated to generate quantitative data on cell viability during exposure to antimycobacterial compounds over a period of 5 days. The formula used to determine percent reduction of alamarBlue has been standardized for colorimetric analysis by Abd Serotec.
The MIC value is routinely and widely used in bacterial assays and is a standard detection limit according to the Clinical and Laboratory Standards Institute.

The test system of series [4] is photosynthetic electron transport (PET) in isolated spinach chloroplasts. Kind of series: Inhibition of photosynthetic electron transport (PET) in isolated spinach chloroplasts. In kind it is biochemical, Spinacia oleracea L. As to conditions: DCPIP photoreduction. As for the experimental part:
The PET-inhibiting activity was expressed by IC50 value, i.e., compound concentration in mol/L causing 50% inhibition of PET.
Chloroplasts were prepared from spinach (Spinacia oleracea L.) according to Masarovicova and Kralova. The inhibition of photosynthetic electron transport (PET) in isolated spinach chloroplasts was determined spectrophotometrically (Genesys 6, Thermo Scientific, USA), using an artificial electron acceptor 2,6-dichlorophenol-indophenol (DCIPP) according to Kralova et al., and the rate of photosynthetic electron transport was monitored as a photoreduction of DCPIP. The measurements were carried out in phosphate buffer (0.02 mol/L, pH 7.2) containing sucrose (0.4 mol/L), MgCl2 (0.005 mol/L) and NaCl (0.015 mol/L). The chlorophyll content was 30 mg/L in these experiments and the samples were irradiated (~100 W/m^2 with 10 cm distance) with a halogen lamp (250 W) using a 4 cm water filter to prevent warming of the samples (suspension temperature 22 °C). The studied compounds were dissolved in DMSO due to their limited water solubility. […] The inhibitory efficiency of the studied compounds was expressed by IC50 values, i.e., by molar concentration of the compounds causing 50% decrease in the oxygen evolution rate relative to the untreated control.

For series [5], the system named is M. avium subsp. paratuberculosis. Description: MTT assay on mycobacteria. The series is classed as cell-based, Mycobacterium avium subsp. paratuberculosis. As to conditions: lowest tested concentration 8 µg/mL (ca. 30 µmol/L), four hours of incubation. On the procedure: Additionally, a standard MTT assay was performed on these same compounds. The MTT assay is a well-characterized method of assessing cell growth through measurement of respiration.
For the MTT assay, the same 96-well plate set up and incubation conditions listed above were used. After the incubation period, a 10% addition of MTT reagent was mixed into each well and incubated at 37 °C for 4 h. The reagent and media were then aspirated from the wells to which 50 µL DMSO was then added and plates were read at 550 nm.

The test system of series [6] is human monocytic leukemia THP-1 cell line. The following applies: THP-1 cells; assessed in this line formerly; cited from earlier work.
[7] abbreviates: 264 h, clinical isolate CIT03, 11 days at 37 °C, alamarBlue, MIC = 90% or greater reduction of growth, read-out: MAP MIC/IC90.
[8] abbreviates: clinical isolate CIT03, read-out: MIC.
The mark [9] stands for this setting: clinical isolate CIT03, 11 days at 37 °C, alamarBlue, MIC = 90% or greater reduction of growth.

Entries after “also recorded” stand apart in the source; their conditions may differ. Where two headings read alike, the source gives them in different places.

Broadly, the solubility is the dissolved amount per volume that the medium holds. The low end stands for little dissolved substance, the high end for much dissolved substance. For orientation: IC50 means the point on the concentration scale where inhibition reaches its midpoint. Read a high IC50 as a need for much substance. Compound `O=C(Nc1cccc(F)c1)c1cccc2ccccc12` [Compound 4b, N-(3-Fluorophenyl)naphthalene-1-carboxamide] registered a log k in series [1] of 0.7204. Further, in series [2], the LD50 is greater than 30 µmol/L and the “lethal effect / toxicity on THP-1 cells” value is listed as “did not lead to significant lethal effect; also recorded: insignificant toxicity”. Besides, the solubility in “physchem” is no more than 30 µM. For the same compound, in series [3], the “antimycobacterial activity relative to ciprofloxacin” value is “three-fold higher” and the “antimycobacterial activity relative to rifampicin” value is “two-fold higher”. For the same compound, in series [3] (setting [7]), the MIC is 57 µM. Also, the MIC in series [3] (setting [8]) is 15 µg/mL. Also, the “MAP MIC/IC90” value in series [3] (setting [9]) turned out to be 57 µM. The same compound gave a half-maximal inhibitory concentration (IC50) in series [4] of 131 µM.
For `COc1ccccc1NC(=O)c1cccc2ccccc12` [Compound 2a, N-(2-Methoxyphenyl)naphthalene-1-carboxamide], the log k in series [1] is 0.8013. In addition, in series [2], the LD50 was greater than 30 µmol/L and the “lethal effect / toxicity on THP-1 cells” value was “did not lead to significant lethal effect; also recorded: insignificant toxicity”. The solubility in the series “physchem” is no more than 30 µM. In series [3], the “antimycobacterial activity relative to ciprofloxacin” value is “three-fold higher” and the “antimycobacterial activity relative to rifampicin” value is “two-fold higher”. Moreover, in series [3] (setting [7]), the MIC was 54 µM.
Consider `Cc1cccc(NC(=O)c2cccc3ccccc23)c1` [Compound 3b, N-(3-Methylphenyl)naphthalene-1-carboxamide], for which the log k in series [1] was found to be 0.7624. Further, in series [2], the LD50 was greater than 30 µmol/L and the “lethal effect / toxicity on THP-1 cells” value was “did not lead to significant lethal effect; also recorded: insignificant toxicity”. Moreover, in the series “physchem”, the solubility was no more than 30 µM. Moreover, in series [3], the “antimycobacterial activity relative to ciprofloxacin” value was “three-fold higher” and the “antimycobacterial activity relative to rifampicin” value is on record as “two-fold higher”. In addition, the MIC in series [3] (setting [7]) stood at 57 µM. For the same compound, in series [4], the IC50 is 136 µM.
In series [1], `COc1cccc(NC(=O)c2cccc3ccccc23)c1` [Compound 2b, N-(3-Methoxyphenyl)naphthalene-1-carboxamide] showed a log k of 0.6087. Also, in series [2], the LD50 is greater than 30 µmol/L and the “lethal effect / toxicity on THP-1 cells” value is “did not lead to significant lethal effect; also recorded: insignificant toxicity”. For the same compound, the solubility in the series “physchem” was no more than 30 µM. For the same compound, in series [3], the “antimycobacterial activity relative to ciprofloxacin” value is listed as “three-fold higher” and the “antimycobacterial activity relative to rifampicin” value is reported as “two-fold higher”. In series [3] (setting [7]), the MIC was found to be 54 µM. The MIC in series [3] (setting [8]) turned out to be 15 µg/mL. Moreover, the “MAP MIC/IC90” value in series [3] (setting [9]) was found to be 54 µM. Besides, the “reduction in activity (MTT)” value in series [5] is “more than 80%”.
Regarding `CC[C@@]1(O)C(=O)OCc2c1cc1n(c2=O)Cc2cc3ccccc3nc2-1` [camptothecin], the LD50 in series [6] is 0.16 ± 0.07 µmol/L.
